Our source for the DC50 and Dmax values is patent US20260184710A1, “CASITAS B-LINEAGE LYMPHOMA PROTOONCOGENE B (CBL-B) DEGRADING COMPOUNDS AND ASSOCIATED METHODS OF USE” (Arvinas Operations, Inc., priority 2022, published 2026).

Test [1] deals with T1, Cbl-b (Homo sapiens, UniProt Q13191).
T1 construct: Cbl-b-HiBit KI Jurkat Cells were purchased from Promega; host or cells: Cbl-b-HiBiT knock-in Jurkat cells
Briefly: Cbl-b Degradation Method A (FACS, anti-Cbl-b antibody staining). It counts as cell-based. The conditions noted are these: Cbl-b-HiBit KI Jurkat Cells, incubated at least 20 hours; for DC50: half maximal degradation, read-out: Cbl-b Degredation Method A IC50; for Dmax: Jurkat, maximum degradation observed, read-out: Cbl-b Degredation Method A Dmax (%). An outline of the steps:
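Readout is flow cytometry of fixed, permeabilized cells immunostained for Cbl-b (primary 1:200, AF488 secondary). Cells were Cbl-b-HiBit knock-in Jurkat, exposed to compound ≥20 h at 37 °C; half-maximal degradation concentration (DC50) and maximal degradation (Dmax) calculated relative to control.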

Test [2] has as its target T1, Cbl-b. Description: Cbl-b Degradation Method B (Nano-Glo HiBiT lytic detection). Type of test: cell-based. The conditions noted are these: Cbl-b-HiBit KI Jurkat Cells, incubated at least 6-24 hours; for DC50: half maximal degradation, read-out: Cbl-b Degredation Method B IC50; for Dmax: maximum degradation observed, read-out: Cbl-b Degredation Method B Dmax (%). Put shortly:
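An 11-point, 3-fold compound dilution was applied for 6-24 hours to Jurkat cells carrying HiBiT-tagged endogenous Cbl-b. Lytic HiBiT luminescence quantified residual protein. Outputs are DC50 and Dmax relative to DMSO control.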

T1 sequence (Q13191 whole entry): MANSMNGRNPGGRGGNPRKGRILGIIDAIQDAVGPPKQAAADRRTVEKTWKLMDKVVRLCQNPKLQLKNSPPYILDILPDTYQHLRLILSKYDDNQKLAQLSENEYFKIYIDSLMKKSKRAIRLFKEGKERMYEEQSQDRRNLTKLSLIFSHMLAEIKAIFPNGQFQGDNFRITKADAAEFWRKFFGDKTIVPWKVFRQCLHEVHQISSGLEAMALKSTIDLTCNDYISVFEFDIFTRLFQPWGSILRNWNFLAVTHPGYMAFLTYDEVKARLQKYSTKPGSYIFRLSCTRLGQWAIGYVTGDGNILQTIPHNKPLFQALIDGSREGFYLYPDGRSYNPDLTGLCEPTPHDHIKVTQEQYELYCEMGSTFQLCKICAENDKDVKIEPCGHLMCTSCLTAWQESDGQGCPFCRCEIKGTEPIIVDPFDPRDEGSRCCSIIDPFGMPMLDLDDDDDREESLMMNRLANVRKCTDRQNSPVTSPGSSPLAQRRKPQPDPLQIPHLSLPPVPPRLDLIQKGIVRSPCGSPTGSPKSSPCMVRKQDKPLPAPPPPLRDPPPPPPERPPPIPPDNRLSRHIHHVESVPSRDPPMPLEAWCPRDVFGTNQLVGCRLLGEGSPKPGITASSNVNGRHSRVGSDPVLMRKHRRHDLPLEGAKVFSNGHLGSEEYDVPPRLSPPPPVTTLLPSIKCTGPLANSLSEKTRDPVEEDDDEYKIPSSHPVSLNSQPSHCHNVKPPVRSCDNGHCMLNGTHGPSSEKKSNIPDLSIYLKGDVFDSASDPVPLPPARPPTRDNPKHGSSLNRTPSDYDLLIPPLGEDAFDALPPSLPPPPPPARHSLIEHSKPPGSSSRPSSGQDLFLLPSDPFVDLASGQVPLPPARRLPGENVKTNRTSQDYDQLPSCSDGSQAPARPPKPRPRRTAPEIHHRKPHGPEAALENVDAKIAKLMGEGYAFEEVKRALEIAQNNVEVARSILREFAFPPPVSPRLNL

For the compound `CC1CN(C[C@H]2CC[C@H](OC3CCN(c4ccc5c(n4)C(C)N(C4CCC(=O)NC4=O)C5=O)CC3)CC2)CCN1Cc1cc2c(c(C(F)(F)F)c1)CN(c1cccc(C3(Cc4nncn4C)CC3)c1)C2=O` (some centres unmarked) [Example 212, 3-[7-methyl-5-oxo-2-(4-{[(1r,4r)-4-[(3-methyl-4-{[2-(3-{1-[(4-methyl-4H-1,2,4-triazol-3-yl)methyl]cyclopropyl}phenyl)-3-oxo-7-(trifluoromethyl)-2,3-dihydro-1H-isoindol-5-yl]methyl}piperazin-1-yl)methyl]cyclohexyl]oxy}piperidin-1-yl)-5H,6H,7H-pyrrolo[3,4-b]pyridin-6-yl]piperidine-2,6-dione], on Cbl-b [1], the DC50 lay within 5 to 50 nM and the Dmax lay within 35 to 70%. Also, on Cbl-b [2], the DC50 was < 5 nM and the Dmax lay within 35 to 70%.

Consider `CC1c2nc(N3CCC(O[C@H]4CC[C@H](CN5C[C@@H]6C[C@H]5CN6Cc5cc6c(c(C(F)(F)F)c5)CN(c5cccc([C@]7(Cc8nncn8C)C[C@H](C#N)C7)c5)C6=O)CC4)CC3)ccc2C(=O)N1C1CCC(=O)NC1=O` (stereo partly drawn) [Example 214, (1r,3r)-3-[(4-methyl-4H-1,2,4-triazol-3-yl)methyl]-3-[3-(1-oxo-6-{[(1S,4S)-5-{[(1r,4r)-4-({1-[6-(2,6-dioxopiperidin-3-yl)-7-methyl-5-oxo-5H,6H,7H-pyrrolo[3,4-b]pyridin-2-yl]piperidin-4-yl}oxy)cyclohexyl]methyl}-2,5-diazabicyclo[2.2.1]heptan-2-yl]methyl}-4-(trifluoromethyl)-2,3-dihydro-1H-isoindol-2-yl)phenyl]cyclobutane-1-carbonitrile], for which, on Cbl-b [1], the DC50 was 5 to 50 nM and the Dmax lay within 35 to 70%. On Cbl-b [2], the DC50 was < 5 nM and the greatest degradation seen (Dmax) fell in the range of 35 to 70%.

With `Cn1cnnc1C[C@]1(c2cccc(N3Cc4c(cc(CN5CCN(C[C@H]6CC[C@H](OC7CCN(c8ccc9c(c8)n(C)c(=O)n9C8CCC(=O)NC8=O)CC7)CC6)CC5)cc4C(F)(F)F)C3=O)c2)C[C@H](C#N)C1` (some centres unmarked) [Example 215, (1r,3r)-3-[(4-methyl-4H-1,2,4-triazol-3-yl)methyl]-3-(3-{1-oxo-6-[(4-{[(1r,4r)-4-({1-[1-(2,6-dioxopiperidin-3-yl)-3-methyl-2-oxo-2,3-dihydro-1H-1,3-benzodiazol-5-yl]piperidin-4-yl}oxy)cyclohexyl]methyl}piperazin-1-yl)methyl]-4-(trifluoromethyl)-2,3-dihydro-1H-isoindol-2-yl}phenyl)cyclobutane-1-carbonitrile], the DC50 on Cbl-b [1] and on Cbl-b [2] was < 5 nM in each case. Besides, the Dmax at Cbl-b [1] was > 70%; on Cbl-b [2], 35 to 70%.

Take `CC1c2nc(N3CCC(O[C@H]4CC[C@H](CN5C[C@H]6C[C@@H]5CN6Cc5cc6c(c(C(F)(F)F)c5)CN(c5cccc([C@]7(Cc8nncn8C)C[C@@H](C#N)C7)c5)C6=O)CC4)CC3)ccc2C(=O)N1C1CCC(=O)NC1=O` (stereo partly drawn) [Example 217, (1r,3r)-3-[(4-methyl-4H-1,2,4-triazol-3-yl)methyl]-3-[3-(1-oxo-6-{[(1R,4R)-5-{[(1r,4r)-4-({1-[6-(2,6-dioxopiperidin-3-yl)-7-methyl-5-oxo-5H,6H,7H-pyrrolo[3,4-b]pyridin-2-yl]piperidin-4-yl}oxy)cyclohexyl]methyl}-2,5-diazabicyclo[2.2.1]heptan-2-yl]methyl}-4-(trifluoromethyl)-2,3-dihydro-1H-isoindol-2-yl)phenyl]cyclobutane-1-carbonitrile]: the DC50 is 5 to 50 nM at Cbl-b [1] and < 5 nM at Cbl-b [2]. The Dmax at Cbl-b [1] and at Cbl-b [2] was 35 to 70% each time.

On to `Cn1cnnc1C[C@]1(c2cccc(N3Cc4c(cc(CN5CCN(C[C@H]6CC[C@H](OC7CCN(c8ccc9c(c8)CC(=O)N9C8CCC(=O)NC8=O)CC7)CC6)CC5)cc4C(F)(F)F)C3=O)c2)C[C@H](C#N)C1` (some centres unmarked) [Example 219, (1r,3r)-3-[(4-methyl-4H-1,2,4-triazol-3-yl)methyl]-3-(3-{1-oxo-6-[(4-{[(1r,4r)-4-({1-[1-(2,6-dioxopiperidin-3-yl)-2-oxo-2,3-dihydro-1H-indol-5-yl]piperidin-4-yl}oxy)cyclohexyl]methyl}piperazin-1-yl)methyl]-4-(trifluoromethyl)-2,3-dihydro-1H-isoindol-2-yl}phenyl)cyclobutane-1-carbonitrile], for which, at Cbl-b [1], the DC50 was < 5 nM and the Dmax was > 70%. Also, on Cbl-b [2], the DC50 is < 5 nM and the Dmax was > 70%.

Consider `Cc1cc(N2CCC(O[C@H]3CC[C@H](CN4CCN(Cc5cc6c(c(C(F)(F)F)c5)CN(c5cccc([C@]7(Cc8nncn8C)C[C@H](C#N)C7)c5)C6=O)[C@@H](C)C4)CC3)CC2)c(F)c2c1C(=O)N(C1CCC(=O)NC1=O)C2` (stereo partly drawn) [Example 220, (1r,3r)-3-[3-(6-{[(2S)-2-methyl-4-{[(1r,4r)-4-({1-[2-(2,6-dioxopiperidin-3-yl)-4-fluoro-7-methyl-1-oxo-2,3-dihydro-1H-isoindol-5-yl]piperidin-4-yl}oxy)cyclohexyl]methyl}piperazin-1-yl]methyl}-1-oxo-4-(trifluoromethyl)-2,3-dihydro-1H-isoindol-2-yl)phenyl]-3-[(4-methyl-4H-1,2,4-triazol-3-yl)methyl]cyclobutane-1-carbonitrile], for which, on Cbl-b [1], the DC50 fell in the range of 5 to 50 nM and the Dmax was > 70%. At Cbl-b [2], the DC50 is < 5 nM and the Dmax is > 70%.

For `Cn1cnnc1CC1(c2cccc(-n3cc4c(C(F)(F)F)cc(CN5CCC[C@H](CN6CCN(C[C@H]7CC[C@@H](OC8CCN(c9ccc%10c(c9F)CN(C9CCC(=O)NC9=O)C%10=O)CC8)CC7)CC6)C5)cc4n3)c2)COC1` (stereo partly drawn) [Example 221, 3-[4-fluoro-1-oxo-5-(4-{[(1r,4r)-4-[(4-{[(3S)-1-{[2-(3-{3-[(4-methyl-4H-1,2,4-triazol-3-yl)methyl]oxetan-3-yl}phenyl)-4-(trifluoromethyl)-2H-indazol-6-yl]methyl}piperidin-3-yl]methyl}piperazin-1-yl)methyl]cyclohexyl]oxy}piperidin-1-yl)-2,3-dihydro-1H-isoindol-2-yl]piperidine-2,6-dione], on Cbl-b [1], the DC50 is < 5 nM and the Dmax was > 70%. In addition, at Cbl-b [2], the DC50 was < 5 nM and the Dmax was > 70%.

Take `CC1c2nc(N3CCC(O[C@H]4CC[C@@H](CN5C[C@@H]6C[C@H]5CN6Cc5cc6c(c(C(F)(F)F)c5)CN(c5cccc(C7(Cc8nncn8C)CCC7)c5)C6=O)CC4)CC3)ccc2C(=O)N1C1CCC(=O)NC1=O` (stereo partly drawn) [Example 223, 3-[7-methyl-5-oxo-2-(4-{[(1r,4r)-4-{[(1S,4S)-5-{[2-(3-{1-[(4-methyl-4H-1,2,4-triazol-3-yl)methyl]cyclobutyl}phenyl)-3-oxo-7-(trifluoromethyl)-2,3-dihydro-1H-isoindol-5-yl]methyl}-2,5-diazabicyclo[2.2.1]heptan-2-yl]methyl}cyclohexyl]oxy}piperidin-1-yl)-5H,6H,7H-pyrrolo[3,4-b]pyridin-6-yl]piperidine-2,6-dione]: the DC50 at Cbl-b [1] was 5 to 50 nM; at Cbl-b [2] it was < 5 nM. Moreover, the Dmax on Cbl-b [1] and on Cbl-b [2] was 35 to 70% throughout.
